Data published in patent publication US4486419A, “5,2',3',4',4",6"-Hexadeoxykanamycin and its 1-N-acylated derivative” (Zaidan Hojin Biseibutsu Kagaku Kenkyu Kai, priority 1982, dated 1984).
≈ marks a conversion by molar mass, not a printed value.

Columns and labels:
[1] = system: Staphylococcus aureus FDA 209P; type: cell-based; settings: FDA209P, nutrient agar, 37° C., 18 hours
[2] = system: Staphylococcus aureus Ap01; type: cell-based; settings: nutrient agar, 37° C., 18 hours
[3] = system: Staphylococcus epidermidis 109; type: cell-based; settings: nutrient agar, 37° C., 18 hours
[4] = system: Micrococcus luteus PCI 1001; type: cell-based; settings: PCI1001, nutrient agar, 37° C., 18 hours
Bacillus anthracis = test: microbe, parasite or virus in culture; type: cell-based; settings: 18 h
[5] = system: Bacillus subtilis PCI 219; type: cell-based; settings: PCI219, nutrient agar, 37° C., 18 hours
[6] = system: Bacillus subtilis NRRL B-558; type: cell-based; settings: NRRLB558, nutrient agar, 37° C., 18 hours
[7] = system: Corynebacterium bovis 1810; test: microbe, parasite or virus in culture; settings: Corynebacterium bovis, 1810, 18 h
Method: (§1) Thus, the minimum inhibitory concentrations (mcg/ml) of the hexadeoxykanamycin and of the hexadeoxyamikacin according to this invention against various microorganisms were determined according to serial dilution method on a nutrient agar medium at 37° C., the estimation being made after 18 hours incubation. For comparison purpose, the minimum inhibitory concentrations of amikacin were also determined in the same manner as stated above.

Serratia marcescens = test: microbe, parasite or virus in culture; settings: 18 h
Method: as §1

[8] = system: Mycobacterium smegmatis ATCC 607; type: cell-based; settings: Mycolicibacterium smegmatis, ATCC607; nutrient agar, 37° C., 18 hours
Escherichia coli NIHJ = type: cell-based; settings: nutrient agar, 37° C., 18 hours
Escherichia coli K-12 = type: cell-based; settings: K12, nutrient agar, 37° C., 18 hours
Escherichia coli K-12 R5 = type: cell-based; settings: K12R5, 18 h
[9] = system: Escherichia coli K-12 R 388; type: cell-based; settings: K12R388, 18 h
[10] = system: Escherichia coli K-12 J5R 11-2; type: cell-based; settings: K12J5R112, nutrient agar, 37° C., 18 hours
[11] = system: Escherichia coli K-12 ML 1410; type: cell-based; settings: K12ML1410, nutrient agar, 37° C., 18 hours
[12] = system: Escherichia coli K-12 ML 1410 R81; test: microbe, parasite or virus in culture; type: cell-based; settings: 18 h
[13] = system: Escherichia coli K-12 LA 290 R55; test: microbe, parasite or virus in culture; type: cell-based; settings: K12LA290R55, 18 h
[14] = system: Escherichia coli K-12 LA 290 R56; test: microbe, parasite or virus in culture; type: cell-based; settings: K12LA290R56, 18 h
[15] = system: Escherichia coli K-12 LA 290 R64; test: microbe, parasite or virus in culture; type: cell-based; settings: K12LA290R64, 18 h
[16] = system: Escherichia coli K-12 C 600R135; test: microbe, parasite or virus in culture; type: cell-based; settings: K12C600R135, 18 h
Escherichia coli JR255 = test: microbe, parasite or virus in culture; type: cell-based; settings: JR255, 18 h
[17] = system: Klebsiella pneumoniae PCI 602; type: cell-based; settings: PCI602, nutrient agar, 37° C., 18 hours
[18] = system: Klebsiella pneumoniae 22 #3038; type: cell-based; settings: nutrient agar, 37° C., 18 hours
[19] = system: Shigella dysenteriae JS 11910; type: cell-based; settings: JS11910, 18 h
[20] = system: Shigella flexneri 4b JS11811; type: cell-based; settings: 4BJS11811, nutrient agar, 37° C., 18 hours
Shigella sonnei JS11746 = type: cell-based; settings: nutrient agar, 37° C., 18 hours
Salmonella typhi T-63 = type: cell-based; settings: Salmonella enterica, 18 h
Proteus vulgaris OX19 = type: cell-based; settings: nutrient agar, 37° C., 18 hours
Proteus rettgeri GN311 = type: cell-based; settings: Providencia rettgeri, nutrient agar, 37° C., 18 hours
Proteus rettgeri GN466 = type: cell-based; settings: Providencia rettgeri, nutrient agar, 37° C., 18 hours
Serratia SOU = type: cell-based; settings: nutrient agar, 37° C., 18 hours
Providencia 2991 = type: cell-based; settings: nutrient agar, 37° C., 18 hours
[21] = system: Pseudomonas aeruginosa No. 12; type: cell-based; settings: nutrient agar, 37° C., 18 hours
[22] = system: Pseudomonas aeruginosa H9; type: cell-based; settings: H9, 18 h
[23] = system: Pseudomonas aeruginosa H11; type: cell-based; settings: nutrient agar, 37° C., 18 hours
[24] = system: Pseudomonas aeruginosa TI-13; type: cell-based; settings: TI13, nutrient agar, 37° C., 18 hours
[25] = system: Pseudomonas aeruginosa B-13; type: cell-based; settings: B13, 18 h
[26] = system: Pseudomonas aeruginosa 21-75; type: cell-based; settings: 2175, nutrient agar, 37° C., 18 hours
[27] = system: Pseudomonas aeruginosa K-Ps102; type: cell-based; settings: KPS102, 18 h
[28] = system: Pseudomonas maltophilia GN907; type: cell-based; settings: Stenotrophomonas maltophilia, nutrient agar, 37° C., 18 hours

SMILES: C[C@@H]1C[C@H](N)[C@@H](O)[C@@H](O[C@@H]2C[C@H](O[C@@H]3CCC[C@@H](CN)O3)[C@@H](N)C[C@H]2NC(=O)[C@@H](O)CCN)O1 [Hexadeoxyamikacin, 1-N-[(S)-4-amino-2-hydroxybutyryl]-5,2',3',4',4",6"-hexadeoxykanamycin]
- MIC [1]: 0.78 µg/mL (≈ 1.59 µM)
- MIC [2]: 3.13 µg/mL (≈ 6.39 µM)
- MIC [3]: 1.56 µg/mL (≈ 3.19 µM)
- MIC [4]: 6.25 µg/mL (≈ 12.8 µM)
- MIC (Bacillus anthracis): 1.56 µg/mL (≈ 3.19 µM)
- MIC [5]: 0.78 µg/mL (≈ 1.59 µM)
- MIC [6]: 0.78 µg/mL (≈ 1.59 µM)
- MIC [7]: 6.25 µg/mL (≈ 12.8 µM)
- MIC (Serratia marcescens): 6.25 µg/mL (≈ 12.8 µM)
- MIC [8]: 1.56 µg/mL (≈ 3.19 µM)
- MIC (Escherichia coli NIHJ): 1.56 µg/mL (≈ 3.19 µM)
- MIC (Escherichia coli K-12): 0.78 µg/mL (≈ 1.59 µM)
- MIC (Escherichia coli K-12 R5): 100 µg/mL (≈ 204 µM)
- MIC [9]: 0.78 µg/mL (≈ 1.59 µM)
- MIC [10]: 1.56 µg/mL (≈ 3.19 µM)
- MIC [11]: 3.13 µg/mL (≈ 6.39 µM)
- MIC [12]: 3.13 µg/mL (≈ 6.39 µM)
- MIC [13]: 1.56 µg/mL (≈ 3.19 µM)
- MIC [14]: 1.56 µg/mL (≈ 3.19 µM)
- MIC [15]: 3.13 µg/mL (≈ 6.39 µM)
- MIC [16]: 1.56 µg/mL (≈ 3.19 µM)
- MIC (Escherichia coli JR255): 0.78 µg/mL (≈ 1.59 µM)
- MIC [17]: 1.56 µg/mL (≈ 3.19 µM)
- MIC [18]: 3.13 µg/mL (≈ 6.39 µM)
- MIC [19]: 6.25 µg/mL (≈ 12.8 µM)
- MIC [20]: 6.25 µg/mL (≈ 12.8 µM)
- MIC (Shigella sonnei JS11746): 3.13 µg/mL (≈ 6.39 µM)
- MIC (Salmonella typhi T-63): 0.78 µg/mL (≈ 1.59 µM)
- MIC (Proteus vulgaris OX19): 0.78 µg/mL (≈ 1.59 µM)
- MIC (Proteus rettgeri GN311): 1.56 µg/mL (≈ 3.19 µM)
- MIC (Proteus rettgeri GN466): 1.56 µg/mL (≈ 3.19 µM)
- MIC (Serratia SOU): 50 µg/mL (≈ 102 µM)
- MIC (Providencia 2991): 6.25 µg/mL (≈ 12.8 µM)
- MIC [21]: 25 µg/mL (≈ 51.1 µM)
- MIC [22]: 50 µg/mL (≈ 102 µM)
- MIC [23]: 100 µg/mL (≈ 204 µM)
- MIC [24]: 12.5 µg/mL (≈ 25.5 µM)
- MIC [25]: 50 µg/mL (≈ 102 µM)
- MIC [26]: 100 µg/mL (≈ 204 µM)
- MIC [27]: 50 µg/mL (≈ 102 µM)
- MIC [28]: > 100 µg/mL
